Results from PubChem BioAssay AID652216 (The Scripps Research Institute Molecular Screening Center, 2013).
Active and inactive are the calls of the source.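 How the source made its calls: active means IC50 below 10 µM against protein phosphatase 1 in the dose response test; inactive means IC50 of 10 µM or more.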

Biological target: Serine/threonine-protein phosphatase PP1-alpha catalytic subunit (Homo sapiens) (UniProt P62136)
Test: PP1 inhibitor potency with OMFP substrate, dose response, biochemical, fluorescence, set 4 (AID 652216)
Settings: purified PP1alpha, OMFP dephosphorylation fluorescence

Serine/threonine-protein phosphatase PP1-alpha catalytic subunit (Homo sapiens), sequence (P62136 whole entry, looked up): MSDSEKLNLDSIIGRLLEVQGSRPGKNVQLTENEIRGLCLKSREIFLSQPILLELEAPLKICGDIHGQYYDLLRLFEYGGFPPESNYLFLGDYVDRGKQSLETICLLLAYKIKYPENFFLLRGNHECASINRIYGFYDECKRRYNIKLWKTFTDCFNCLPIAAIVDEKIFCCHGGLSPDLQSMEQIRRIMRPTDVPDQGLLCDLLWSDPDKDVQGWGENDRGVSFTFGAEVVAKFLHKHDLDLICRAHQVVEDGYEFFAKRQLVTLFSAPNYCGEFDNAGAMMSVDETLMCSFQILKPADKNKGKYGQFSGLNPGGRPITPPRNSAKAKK

IC50	SMILES
inactive	CN1CCN(C(c2cccc(F)n2)c2ccc3cccnc3c2O)CC1 (centres undefined)
8.84 µM	CN1CCN([C@H](c2ccc(C(F)(F)F)cn2)c2ccc3cccnc3c2O)CC1
8.39 µM	CN1CCN([C@@H](c2ccc(C(F)(F)F)cn2)c2ccc3cccnc3c2O)CC1
4.51 µM	CN1CCN(C(c2ccc(C(F)(F)F)cn2)c2ccc3cccnc3c2O)CC1 (centres undefined)
